Results as given in patent publication US9365608B2, “Method for treating diabetes” (Ohr Pharmaceutical, Inc., priority 2007, dated 2016).
“Also recorded” adds a separate entry of the source.

Assays:
full length TCPTP = biological target: T1, full length TCPTP (Homo sapiens, UniProt P17706); assay: Inhibition of TCPTP by steroid analogues (pNPP hydrolysis); type: biochemical; settings: 200 μM inhibitor; pNPP substrate
T1 construct: except full length TCPTP was used as the enzyme
T1 sequence (P17706 1-415): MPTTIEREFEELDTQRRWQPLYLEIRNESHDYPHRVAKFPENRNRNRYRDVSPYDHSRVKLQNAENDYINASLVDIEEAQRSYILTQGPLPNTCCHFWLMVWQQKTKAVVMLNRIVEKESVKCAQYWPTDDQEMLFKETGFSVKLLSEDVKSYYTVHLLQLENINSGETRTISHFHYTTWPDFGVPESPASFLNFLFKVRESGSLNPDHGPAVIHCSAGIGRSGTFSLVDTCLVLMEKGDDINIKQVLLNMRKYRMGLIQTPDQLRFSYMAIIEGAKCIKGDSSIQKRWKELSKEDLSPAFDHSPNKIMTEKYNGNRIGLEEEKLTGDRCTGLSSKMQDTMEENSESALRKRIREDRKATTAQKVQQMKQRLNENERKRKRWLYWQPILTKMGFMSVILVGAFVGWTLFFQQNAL
Method: (§1) The steroid analogues were tested for inhibition against the commercially available full length tyrosine phosphatase PTP1B. The ability of each analogue to inhibit the activity of PTP1B was measured in the presence of 10 μM of the steroid analogue. The assay uses para-nitro-phenyl phosphate (pNPP), a non-specific substrate to assess phosphatase activity. Phosphatase activity was based on the ability of PTP 1B to catalyze the hydrolysis of pNPP to p-nitrophenol (pNP).
The steroid analogues were also tested for their ability to inhibit the tyrosine phosphatase TCPTP as an indication of their potential toxicity by the inhibition of the immune response. The TCPTP inhibition assay was done in the same manner as the PTP1B assay except full length TCPTP was used as the enzyme and the inhibitor was at a concentration of 200 μM. The results of the TCPTP inhibition assays are shown in Table 1, column D and show three compounds that inhibit TCPTP less than 50% even at a 20 fold greater concentration.

Db/db (Lepr^db) mouse [1] = assay: Body weight change in the diabetic Db/db mouse; type: in vivo; settings: Db/db mice, 5 or 10 mg/kg ip every 3 days x4; for % Change in Body Weight: vs body weight on study day 0
Method: (§2) To determine in vivo efficacy of the steroid analogues a Db/db (Lepr^db) in mouse model was used. Db/db mice are extensively used for screening of antidiabetic agents. Db/db mice were treated with either saline or 5 or 10 mg/kg steroid analogue every 3 days for a total of 4 doses via ip injection. Body weight, glucose tolerance and fasting blood glucose levels were measured for each group during the study. Each group had at least an N of 4 animals. All reagents and lab animals are commercially available.
Starting at study day 0, body weight measurements were taken every day for each group for up to 30 days. Percent change in body weight was calculated as the fractional response of body weight on study day X over the original body weight on study day 0.

Db/db (Lepr^db) mouse [2] = assay: Fasting blood glucose in the diabetic Db/db mouse; type: in vivo; settings: Db/db mice; for % Reduction in FBG: 5 or 10 mg/kg ip every 3 days x4 doses, study day 14 after overnight fast, vs saline; for Reduction of FBG levels compared to saline control (in words): study day 14
Method: as §2
On study day 13, all animal groups were fasted overnight. On study day 14, 25 μL of whole blood was collected and analyzed for the glucose level (mg/dL) using a glucose analyzer.

Db/db (Lepr^db) mouse [3] = assay: Oral glucose tolerance test (OGTT) in the diabetic Db/db mouse; type: in vivo; settings: for % Reduction in OGTT Above Baseline AUC / Reduction in ABAUC compared to saline control (in words): Db/db mice; for % Reduction in OGTT Above Baseline AUC: 5 or 10 mg/kg ip every 3 days x4, day 14, oral glucose 1.5 g/kg, 0-120 min, vs saline; for Reduction in ABAUC compared to saline control (in words): OGTT study day 14, p<0.05; for Response in glucose tolerance test vs saline treated controls (FIG. 3 legend): legend says ob/ob mice
Method: as §2
Also on study day 14, an OGTT was performed to assess glucose tolerance. At time 0, an oral glucose challenge (1.5 g/kg) was administered by oral gavage. At timepoints 0, 15, 30, 60, 90, 120 min post glucose load, 25 μl of whole blood was withdrawn from the tail vein of the animal and the glucose level was measured using a glucose analyzer. The glucose concentration vs time was plotted (FIG. 2). Above baseline area under the curve (ABAUC) of the glucose excursion time curve was determined using trapezoidal rule analyses.

[4] = biological target: T2, full length tyrosine phosphatase PTP1B (Homo sapiens, UniProt P18031); assay: Inhibition of PTP1B by steroid analogues (pNPP hydrolysis, absorbance 405 nm); type: biochemical; settings: read-out: PTP1B Inhibition (5 μM)
T2 construct: commercially available full length tyrosine phosphatase PTP1B; purchased
T2 sequence (P18031 1-435): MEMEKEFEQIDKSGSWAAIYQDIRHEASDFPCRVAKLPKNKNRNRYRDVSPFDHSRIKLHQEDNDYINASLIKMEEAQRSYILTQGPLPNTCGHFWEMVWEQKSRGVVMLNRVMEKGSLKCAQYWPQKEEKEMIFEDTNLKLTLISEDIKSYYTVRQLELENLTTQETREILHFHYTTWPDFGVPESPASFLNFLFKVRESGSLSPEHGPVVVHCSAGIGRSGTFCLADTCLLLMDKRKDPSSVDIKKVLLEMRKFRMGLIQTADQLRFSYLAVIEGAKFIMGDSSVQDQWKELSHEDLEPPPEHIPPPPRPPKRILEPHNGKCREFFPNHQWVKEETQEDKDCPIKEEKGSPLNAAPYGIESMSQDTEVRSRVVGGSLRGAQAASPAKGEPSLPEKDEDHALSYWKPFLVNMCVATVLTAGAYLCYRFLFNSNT
Method: as §1, with “The ability of each analogue to inhibit the activity of PTP1B was measured in the presence of 10 μM of the steroid analogue.” left out

[5] = system: Insulin Receptor β (IR-β) in the hypothalamus; assay: Phosphorylation of IR-β in the rat hypothalamus (IP / anti-pTyr western blot); type: in vivo; settings: male SD rats, 10 mg/kg i.p. Day 0; insulin 100 U/kg i.p. Day 1; 15 or 30 min post-dose; listed as MSI-1436, 10 mg/kg
Method: Male SD rats were divided into 8 groups with 4 rats per group. All rats were fed ad libitum normal rodent chow and regular tap water. On Day 0, rats were dosed via intraperitoneal (i.p.) injection with 10 mg/kg MSI-1436 or 0.9% saline. Rats were fasted overnight from Day 0 to Day 1. On Day 1, animals were dosed i.p. with 0.9% saline or 100 U/kg of insulin. At 15 or 30 minutes post-dose (Day 1), animals were sacrificed and the hypothalamuses were harvested, transferred to 1.5 mL eppendorf tubes, and frozen in liquid nitrogen. Samples were stored at −80° C. until further analysis. Hypothalamuses were pooled (3-4 per group) and homogenized in 2-mL Wheaton vials and Dounce homogenizers in 1 mL of tissue extraction reagent plus phosphatase and protease inhibitors. Lysates were centrifuged for 10 minutes at 4° C. (14,000 rpm) and the supernatants were transferred to new 1.5 mL eppendorf tubes. Lysates (500 μg) were immunoprecipitated for Insulin Receptor β overnight at 4° C. The samples were then bound to Protein A according to standard protocols for 4 hours at 4° C. […]
500 μg of total protein from each sample was loaded onto a 1.5 mm 4-12% Bis-Tris Novex gel and run at 175V for approximately 1 hr in 1×MOPS buffer. […] The ratio of the pTyr-IRβ band to the IRβ band was computed in Excel and the fold change in IR phosphorylation determined. […]

[6] = previously described in US patents; cited from earlier work

Molecule CC(C)CCC[C@@H](C)[C@H]1CCC2C3C(CC[C@@]21C)[C@@]1(C)CC[C@H](NCCCNCCCCN)C[C@@H]1C[C@H]3O (stereo partly drawn) [Compound 1371] has an inhibition at 200 µM (full length TCPTP) of 0%.
With CC(C)[C@@H](CC[C@@H](C)[C@H]1CCC2C3C(CC[C@@]21C)[C@@]1(C)CC[C@H](NCCCNCCCCNCCCN)C[C@@H]1C[C@H]3O)OS(=O)(=O)O (stereo partly drawn) [Compound 1873] the “Weight loss (in words)” value (Db/db (Lepr^db) mouse [1]) was “do not produce weight loss”, the “% Change in Body Weight” value (Db/db (Lepr^db) mouse [1]) was 4% and the “% Reduction in FBG” value (Db/db (Lepr^db) mouse [2]) was 41%. The “Reduction of FBG levels compared to saline control (in words)” value (from here on “Reduction of FBG levels”) (Db/db (Lepr^db) mouse [2]) was “significant reduction”, the “% Reduction in OGTT Above Baseline AUC” value (Db/db (Lepr^db) mouse [3]) was 47% and the “Reduction in ABAUC compared to saline control (in words)” value (from here on “Reduction in ABAUC”) (Db/db (Lepr^db) mouse [3]) was “significant reduction”. The “Response in glucose tolerance test vs saline treated controls (FIG. 3 legend)” value (Db/db (Lepr^db) mouse [3]) was “respond significantly faster”.
CC(C)[C@@H](CC[C@@H](C)C1CCC2C3C(CC[C@@]21C)[C@@]1(C)CCC(=O)C[C@H]1C[C@@H]3O)S(=O)(=O)O (stereo partly drawn) [Compound 2347] gave an inhibition at 5 µM [4] of 27%.
In the case of CC(C)[C@@H](CC[C@@H](C)[C@H]1CCC2C3C(CC[C@@]21C)[C@@]1(C)CC[C@H](NCCCNCCCCNCCCN)C[C@@H]1C[C@H]3O)OS(=O)(=O)O (stereo partly drawn) [Compound 1436], the “% Change in Body Weight” value (Db/db (Lepr^db) mouse [1]) is reported as −8%, the “Amount of phospho-Tyrosine on insulin stimulated IR-β in the hypothalamus (fold change, pTyr-IRβ/IRβ)” value [5] is reported as “can increase the level; also recorded: nearly doubles” and the “% Reduction in FBG” value (Db/db (Lepr^db) mouse [2]) is reported as 64%. For the same molecule, the “Reduction of FBG levels” value (Db/db (Lepr^db) mouse [2]) was “significant reduction”, the inhibition at 200 µM (full length TCPTP) was 0% and the “% Reduction in OGTT Above Baseline AUC” value (Db/db (Lepr^db) mouse [3]) was 83%. For the same molecule, the “Reduction in ABAUC” value (Db/db (Lepr^db) mouse [3]) was “significant reduction” and the “Weight gain and appetite in animal models” value [6] was “inhibit weight gain and suppress appetite”.
Molecule COC(=O)CC[C@@H](C)[C@H]1CCC2C3C(CC[C@@]21C)[C@@]1(C)CC[C@H](NCCCNCCCCN)C[C@@H]1C[C@H]3O (stereo partly drawn) [Compound 1320] has an inhibition at 200 µM (full length TCPTP) of 0%.
With CNCCNC(C)[C@H]1CCC2C3CC=C4CC(O)CC[C@]4(C)C3CC[C@@]21C (stereo partly drawn) [Compound 2498] the inhibition at 5 µM [4] was 13%.
With CC(C)[C@@H](CC[C@@H](C)[C@H]1CCC2C3C(CC[C@@]21C)[C@@]1(C)CC[C@H](NCCCNCCCCNCCCN)C[C@H]1C[C@H]3O)OS(=O)(=O)O (stereo partly drawn) [Compound 1701] the “Weight loss (in words)” value (Db/db (Lepr^db) mouse [1]) was “do not produce weight loss”, the “% Change in Body Weight” value (Db/db (Lepr^db) mouse [1]) was 3% and the “% Reduction in FBG” value (Db/db (Lepr^db) mouse [2]) was 40%. For the same molecule, the “Reduction of FBG levels” value (Db/db (Lepr^db) mouse [2]) was “significant reduction”, the “% Reduction in OGTT Above Baseline AUC” value (Db/db (Lepr^db) mouse [3]) was 49% and the “Reduction in ABAUC” value (Db/db (Lepr^db) mouse [3]) was “significant reduction”. The “Response in glucose tolerance test vs saline treated controls (FIG. 3 legend)” value (Db/db (Lepr^db) mouse [3]) was “respond significantly faster”.
For CC(C)[C@H](OS(=O)(=O)O)[C@@H](C)[C@H]1CCC2C3C(CC[C@@]21C)[C@@]1(C)CC[C@H](NCCCNCCCCNCCCN)C[C@@H]1C[C@H]3O (stereo partly drawn) [Compound 1814], the “% Reduction in FBG” value (Db/db (Lepr^db) mouse [2]) was 46%, the “Reduction of FBG levels” value (Db/db (Lepr^db) mouse [2]) was “significant reduction” and the “% Reduction in OGTT Above Baseline AUC” value (Db/db (Lepr^db) mouse [3]) was 60%. The “Reduction in ABAUC” value (Db/db (Lepr^db) mouse [3]) was “significant reduction”.
In the case of C[C@H](CCS(=O)(=O)O)[C@H]1CCC2C3CC[C@H]4C[C@@H](NCCCNCCCCN)CC[C@]4(C)C3CC[C@@]21C (stereo partly drawn) [Compound 1370], the inhibition at 200 µM (full length TCPTP) is reported as 44%.
Work on CC(C)[C@@H](CC[C@@H](C)[C@H]1CCC2C3C(CC[C@@]21C)[C@@]1(C)CCC(O)C[C@H]1C[C@H]3O)OS(=O)(=O)O (stereo partly drawn) [Compound 2459] yielded an inhibition at 5 µM [4] of 17%.
In the case of COC(=O)CC[C@@H](C)[C@H]1CCC2C3C[C@@H](O)[C@H]4C[C@@H](NCCN)CC[C@]4(C)C3CC[C@@]21C (stereo partly drawn) [Compound 1431], the “Weight loss (in words)” value (Db/db (Lepr^db) mouse [1]) is reported as “weight loss similar to 1436”, the “% Change in Body Weight” value (Db/db (Lepr^db) mouse [1]) is reported as −7% and the “% Reduction in FBG” value (Db/db (Lepr^db) mouse [2]) is reported as 55%. The “Reduction of FBG levels” value (Db/db (Lepr^db) mouse [2]) was “significant reduction”, the “% Reduction in OGTT Above Baseline AUC” value (Db/db (Lepr^db) mouse [3]) was 47% and the “Reduction in ABAUC” value (Db/db (Lepr^db) mouse [3]) was “significant reduction”.
CC(C)CCC[C@@H](C)[C@H]1CCC2C3CC[C@H]4C[C@@H](NCCCNCCCCNCCCN)CC[C@]4(C)C3CC[C@@]21C (stereo partly drawn) [Compound 1303] showed an inhibition at 200 µM (full length TCPTP) of 83%.
